Results reported in paper PMC5218480 (PLoS ONE, 2017).

Test system: MV-4-11 cells
Assay: Gene expression microarray analysis (Affymetrix PrimeView) and GSEA
Assay type: cell-based, human
Design: RFU PODN (11730768_x_at) / Fold change /veh PODN (11730768_x_at) / RFU LINC00158 (11744669_a_at) / Fold change /veh LINC00158 (11744669_a_at) / RFU DUSP10 (11751237_a_at) / Fold change /veh DUSP10 (11751237_a_at) / RFU ID3 (11757404_x_at) / Fold change /veh ID3 (11757404_x_at) / RFU PLEKHG5 (11737974_s_at) / Fold change /veh PLEKHG5 (11737974_s_at) / RFU LRRC4B (11730491_at) / Fold change /veh LRRC4B (11730491_at) / RFU GIMAP4 (11747438_a_at) / Fold change /veh GIMAP4 (11747438_a_at) / RFU KRT8 (11758183_x_at) / Fold change /veh KRT8 (11758183_x_at) / RFU CNN1 (11734310_a_at) / Fold change /veh CNN1 (11734310_a_at) / RFU VPS37D (11726825_at) / Fold change /veh VPS37D (11726825_at) / RFU C10orf10 (11716522_x_at) / Fold change /veh C10orf10 (11716522_x_at) / RFU KIR2DL2 /// KIR2DL4 /// KIR2DL5A /// KIR2DL5B /// KIR2DS1 /// KIR2DS2 /// KIR2DS3 /// KIR2DS4 /// KIR3DL3 /// KIR3DL3 /// KIR3DS1 (11738374_at) / Fold change /veh KIR2DL2 /// KIR2DL4 /// KIR2DL5A /// KIR2DL5B /// KIR2DS1 /// KIR2DS2 /// KIR2DS3 /// KIR2DS4 /// KIR3DL3 /// KIR3DL3 /// KIR3DS1 (11738374_at) / RFU C1QL1 (11718748_at) / Fold change /veh C1QL1 (11718748_at) / RFU TMPRSS4 (11747572_a_at) / Fold change /veh TMPRSS4 (11747572_a_at) / RFU HAMP (11756126_x_at) / Fold change /veh HAMP (11756126_x_at) / RFU RNFT2 (11725882_a_at) / Fold change /veh RNFT2 (11725882_a_at) / RFU NR4A2 (11747474_a_at) / Fold change /veh NR4A2 (11747474_a_at) / RFU ABCC12 (11746883_a_at) / Fold change /veh ABCC12 (11746883_a_at) / RFU TMEM136 (11760407_x_at) / Fold change /veh TMEM136 (11760407_x_at) / RFU CLDN22 /// WWC2 (11732394_at) / Fold change /veh CLDN22 /// WWC2 (11732394_at) / RFU HLA-DPB1 (11760878_x_at) / Fold change /veh HLA-DPB1 (11760878_x_at) / RFU SPINT1 (11716480_a_at) / Fold change /veh SPINT1 (11716480_a_at) / RFU GAP43 (11754022_s_at) / Fold change /veh GAP43 (11754022_s_at) / RFU A4GNT (11735810_at) / Fold change /veh A4GNT (11735810_at) / RFU PRB3 (11715151_x_at) / Fold change /veh PRB3 (11715151_x_at) / RFU TUBB4B (11761932_at) / Fold change /veh TUBB4B (11761932_at) / RFU CAPN14 (11732068_a_at) / Fold change /veh CAPN14 (11732068_a_at) / RFU TMCC2 (11721928_a_at) / Fold change /veh TMCC2 (11721928_a_at) / RFU IRGQ (11745062_a_at) / Fold change /veh IRGQ (11745062_a_at) / RFU FAM174B (11720279_a_at) / Fold change /veh FAM174B (11720279_a_at) / RFU TMPRSS4 (11748680_a_at) / Fold change /veh TMPRSS4 (11748680_a_at) / RFU FAM212B (11763350_a_at) / Fold change /veh FAM212B (11763350_a_at) / RFU PLEKHG5 (11743358_a_at) / Fold change /veh PLEKHG5 (11743358_a_at) / RFU ZSCAN30 (11745921_a_at) / Fold change /veh ZSCAN30 (11745921_a_at) / RFU CMKLR1 (11741424_a_at) / Fold change /veh CMKLR1 (11741424_a_at) / RFU LOC101060620 /// MAPK8IP1 (11723275_at) / Fold change /veh LOC101060620 /// MAPK8IP1 (11723275_at) / RFU SPTSSB (11747773_x_at) / Fold change /veh SPTSSB (11747773_x_at) / RFU PRSS12 (11739890_at) / Fold change /veh PRSS12 (11739890_at) / RFU BIN1 (11741810_x_at) / Fold change /veh BIN1 (11741810_x_at) / RFU WNT11 (11732464_a_at) / Fold change /veh WNT11 (11732464_a_at) / RFU C10orf10 (11716521_a_at) / Fold change /veh C10orf10 (11716521_a_at) / RFU C5orf56 (11738089_at) / Fold change /veh C5orf56 (11738089_at) / RFU CYB561 (11721691_x_at) / Fold change /veh CYB561 (11721691_x_at) / RFU ANKRD19P (11752326_a_at) / Fold change /veh ANKRD19P (11752326_a_at) / RFU OR2T12 /// OR2T33 /// OR2T8 (11738714_s_at) / Fold change /veh OR2T12 /// OR2T33 /// OR2T8 (11738714_s_at) / RFU VCAN (11748164_a_at) / Fold change /veh VCAN (11748164_a_at) / RFU JSRP1 (11732532_at) / Fold change /veh JSRP1 (11732532_at) / RFU KRTAP10-11 (11738290_x_at) / Fold change /veh KRTAP10-11 (11738290_x_at) / RFU MYO3A (11730013_a_at) / Fold change /veh MYO3A (11730013_a_at) / RFU EBF3 (11725865_a_at) / Fold change /veh EBF3 (11725865_a_at) / RFU CAMK2N1 (11719241_x_at) / Fold change /veh CAMK2N1 (11719241_x_at) / RFU C5orf56 (11738088_a_at) / Fold change /veh C5orf56 (11738088_a_at) / RFU OLFML3 (11715873_a_at) / Fold change /veh OLFML3 (11715873_a_at) / RFU LOC100653217 /// NTM (11731650_a_at) / Fold change /veh LOC100653217 /// NTM (11731650_a_at) / RFU MAPK11 (11762145_a_at) / Fold change /veh MAPK11 (11762145_a_at) / RFU FIZ1 (11724087_x_at) / Fold change /veh FIZ1 (11724087_x_at) / RFU OASL (11726364_x_at) / Fold change /veh OASL (11726364_x_at) / RFU SOX15 (11748057_x_at) / Fold change /veh SOX15 (11748057_x_at) / RFU CD79A (11719716_a_at) / Fold change /veh CD79A (11719716_a_at) / RFU HIST1H1D (11736915_at) / Fold change /veh HIST1H1D (11736915_at) / RFU CASKIN2 (11723855_a_at) / Fold change /veh CASKIN2 (11723855_a_at) / RFU LOC730098 (11760151_x_at) / Fold change /veh LOC730098 (11760151_x_at) / RFU OR4N2 (11742367_at) / Fold change /veh OR4N2 (11742367_at) / RFU PRRT2 (11749266_a_at) / Fold change /veh PRRT2 (11749266_a_at) / RFU SNX32 (11753110_a_at) / Fold change /veh SNX32 (11753110_a_at) / RFU CDHR5 (11726645_a_at) / Fold change /veh CDHR5 (11726645_a_at) / RFU RCAN1 (11760418_a_at) / Fold change /veh RCAN1 (11760418_a_at) / RFU FAM167A (11723789_a_at) / Fold change /veh FAM167A (11723789_a_at) / RFU FAM26E (11764081_at) / Fold change /veh FAM26E (11764081_at) / RFU ISYNA1 (11749810_s_at) / Fold change /veh ISYNA1 (11749810_s_at) / RFU ACY1 (11761880_at) / Fold change /veh ACY1 (11761880_at) / RFU 11764098_at / Fold change /veh 11764098_at / RFU SAMD14 (11745864_x_at) / Fold change /veh SAMD14 (11745864_x_at) / RFU NPB (11741838_a_at) / Fold change /veh NPB (11741838_a_at) / RFU TMPRSS6 (11731388_a_at) / Fold change /veh TMPRSS6 (11731388_a_at) / RFU KRTAP10-2 (11738614_at) / Fold change /veh KRTAP10-2 (11738614_at) / RFU ARHGAP8 /// PRR5-ARHGAP8 (11727945_x_at) / Fold change /veh ARHGAP8 /// PRR5-ARHGAP8 (11727945_x_at) / RFU KRTAP5-7 /// NADSYN1 (11734609_at) / Fold change /veh KRTAP5-7 /// NADSYN1 (11734609_at) / RFU RASL12 (11751679_a_at) / Fold change /veh RASL12 (11751679_a_at) / RFU CDKN2B (11736163_a_at) / Fold change /veh CDKN2B (11736163_a_at) / RFU PRF1 (11729649_at) / Fold change /veh PRF1 (11729649_at) / RFU, ZNF638 /// ZNF638-IT1 / Fold change vs veh, ZNF638 /// ZNF638-IT1 / RFU, PANK3 / Fold change vs veh, PANK3 / RFU, SH3YL1 / Fold change vs veh, SH3YL1 / RFU, ZEB2 / Fold change vs veh, ZEB2 / RFU, NRIP1 / Fold change vs veh, NRIP1 / RFU, PTTG1IP / Fold change vs veh, PTTG1IP / RFU, CAPN2 / Fold change vs veh, CAPN2 / RFU, MED14 / Fold change vs veh, MED14 / RFU, SNORA58 / Fold change vs veh, SNORA58 / RFU, C1orf63 / Fold change vs veh, C1orf63 / RFU, LRRFIP1 / Fold change vs veh, LRRFIP1 / RFU, NDUFAF7 / Fold change vs veh, NDUFAF7 / RFU, SLC12A2 / Fold change vs veh, SLC12A2 / RFU, IBTK / Fold change vs veh, IBTK / RFU, ESF1 / Fold change vs veh, ESF1 / Fold change vs veh, TMEM50B / RFU, TAOK1 / Fold change vs veh, TAOK1 / RFU, ACBD3 / Fold change vs veh, ACBD3 / RFU, TMA16 / Fold change vs veh, TMA16 / RFU, RWDD3 / Fold change vs veh, RWDD3 / RFU, BCAT1 / Fold change vs veh, BCAT1 / RFU, EDEM3 / Fold change vs veh, EDEM3 / RFU, TMEM33 / Fold change vs veh, TMEM33 / RFU, WDR75 / Fold change vs veh, WDR75 / RFU, AHCTF1 / Fold change vs veh, AHCTF1 / RFU, TFRC / Fold change vs veh, TFRC / RFU, ZDHHC17 / Fold change vs veh, ZDHHC17 / RFU, NOM1 / Fold change vs veh, NOM1 / RFU, ARL8B / Fold change vs veh, ARL8B / RFU, ZBTB11 / Fold change vs veh, ZBTB11 / RFU, TAMM41 / Fold change vs veh, TAMM41 / RFU, KIAA1704 /// LOC100996395 / Fold change vs veh, KIAA1704 /// LOC100996395 / RFU, ING1 / Fold change vs veh, ING1 / RFU, TRMT61B / Fold change vs veh, TRMT61B / RFU, FUBP3 / Fold change vs veh, FUBP3 / RFU, TP53 / Fold change vs veh, TP53 / RFU, TNKS2 / Fold change vs veh, TNKS2 / RFU, ZFP14 / Fold change vs veh, ZFP14 / RFU, ACTR2 / Fold change vs veh, ACTR2 / RFU, PPP3R1 / Fold change vs veh, PPP3R1 / RFU, PIK3R1 / Fold change vs veh, PIK3R1 / RFU, HNRNPA1 / Fold change vs veh, HNRNPA1 / RFU, RNF170 / Fold change vs veh, RNF170 / RFU, ZNF28 / Fold change vs veh, ZNF28 / RFU, RNGTT / Fold change vs veh, RNGTT / RFU, OGT / Fold change vs veh, OGT / RFU, BRD1 / Fold change vs veh, BRD1 / RFU, MARS / Fold change vs veh, MARS / RFU, ZNF655 / Fold change vs veh, ZNF655 / RFU, FAHD1 / Fold change vs veh, FAHD1 / RFU, BDP1 / Fold change vs veh, BDP1 / RFU, LRRCC1 / Fold change vs veh, LRRCC1 / RFU, ARID1A / Fold change vs veh, ARID1A / RFU, ZNF146 / Fold change vs veh, ZNF146 / RFU, ZNF330 / Fold change vs veh, ZNF330 / RFU, GPN3 / Fold change vs veh, GPN3 / RFU, C9orf123 / Fold change vs veh, C9orf123 / RFU, N4BP2L2 / Fold change vs veh, N4BP2L2 / RFU, ARFIP1 / Fold change vs veh, ARFIP1 / RFU, FAM179B / Fold change vs veh, FAM179B / RFU, BCL10 / Fold change vs veh, BCL10 / RFU, UHRF1BP1L / Fold change vs veh, UHRF1BP1L / RFU, BET1 / Fold change vs veh, BET1 / RFU, CNOT2 / Fold change vs veh, CNOT2 / RFU, ZNF268 / Fold change vs veh, ZNF268 / Fold change vs veh, ZNF507 / RFU, DGCR2 / Fold change vs veh, DGCR2 / RFU, WDSUB1 / Fold change vs veh, WDSUB1 / Fold change vs veh, HSP90B1 /// MIR3652 / RFU, ADSS / Fold change vs veh, ADSS / RFU, GK / Fold change vs veh, GK / RFU, ZNF148 / Fold change vs veh, ZNF148 / RFU, TAF9 / Fold change vs veh, TAF9 / RFU, SLC1A5 / Fold change vs veh, SLC1A5 / RFU, SLMO2 / Fold change vs veh, SLMO2 / RFU, ABCC4 / Fold change vs veh, ABCC4 / RFU, LOC101060439 /// RAP1B / Fold change vs veh, LOC101060439 /// RAP1B / RFU, RFX7 / Fold change vs veh, RFX7 / RFU, GTPBP10 / Fold change vs veh, GTPBP10 / RFU, CNEP1R1 / Fold change vs veh, CNEP1R1 / RFU, BIVM-ERCC5 /// ERCC5 / Fold change vs veh, BIVM-ERCC5 /// ERCC5 / RFU, ILF3 / Fold change vs veh, ILF3 / RFU 11762660_at / Fold change /veh 11762660_at / RFU VCAN (11757783_s_at) / Fold change /veh VCAN (11757783_s_at) / RFU DDX43 (11728927_at) / Fold change /veh DDX43 (11728927_at) / RFU KRT8 (11758188_x_at) / Fold change /veh KRT8 (11758188_x_at) / RFU NKD1 (11759106_at) / Fold change /veh NKD1 (11759106_at) / RFU SRD5A1 (11742802_a_at) / Fold change /veh SRD5A1 (11742802_a_at) / RFU TPSAB1 /// TPSB2 (11721975_s_at) / Fold change /veh TPSAB1 /// TPSB2 (11721975_s_at) / RFU GSTM3 (11746129_a_at) / Fold change /veh GSTM3 (11746129_a_at) / RFU IL23R (11737362_x_at) / Fold change /veh IL23R (11737362_x_at) / RFU TMEM51 (11727254_a_at) / Fold change /veh TMEM51 (11727254_a_at) / RFU PIWIL2 (11732686_x_at) / Fold change /veh PIWIL2 (11732686_x_at) / RFU ORM1 (11744905_x_at) / Fold change /veh ORM1 (11744905_x_at) / RFU CCDC152 (11743942_at) / Fold change /veh CCDC152 (11743942_at) / RFU ECM1 (11717891_a_at) / Fold change /veh ECM1 (11717891_a_at) / RFU IL23R (11748794_a_at) / Fold change /veh IL23R (11748794_a_at) / RFU TNFAIP8L3 (11732012_x_at) / Fold change /veh TNFAIP8L3 (11732012_x_at) / RFU MBOAT4 (11741988_at) / Fold change /veh MBOAT4 (11741988_at) / RFU 11764193_at / Fold change /veh 11764193_at / RFU TMEM53 (11763286_at) / Fold change /veh TMEM53 (11763286_at) / RFU MAGEB2 (11727129_at) / Fold change /veh MAGEB2 (11727129_at) / RFU TMEM200A (11744735_a_at) / Fold change /veh TMEM200A (11744735_a_at) / RFU CCDC152 (11751479_a_at) / Fold change /veh CCDC152 (11751479_a_at) / RFU FAM211A (11726209_a_at) / Fold change /veh FAM211A (11726209_a_at) / RFU RGS16 (11746705_a_at) / Fold change /veh RGS16 (11746705_a_at) / RFU VCAN (11755009_s_at) / Fold change /veh VCAN (11755009_s_at) / RFU RHOB (11743442_s_at) / Fold change /veh RHOB (11743442_s_at) / RFU RGS16 (11720943_a_at) / Fold change /veh RGS16 (11720943_a_at) / RFU RGS16 (11720944_at) / Fold change /veh RGS16 (11720944_at) / RFU, VPS4B / Fold change vs veh, VPS4B / RFU, CREB1 / Fold change vs veh, CREB1 / RFU, DNAJC13 / Fold change vs veh, DNAJC13 / RFU, GNAQ / Fold change vs veh, GNAQ / RFU, CDK5R1 / Fold change vs veh, CDK5R1 / RFU, ZRANB3 / Fold change vs veh, ZRANB3 / RFU, CUL4A / Fold change vs veh, CUL4A / RFU, CCNY / Fold change vs veh, CCNY / RFU, UFL1 / Fold change vs veh, UFL1 / RFU, COG3 / Fold change vs veh, COG3 / RFU, DIAPH2 / Fold change vs veh, DIAPH2 / RFU, SKA2 / Fold change vs veh, SKA2 / RFU, AFF3 / Fold change vs veh, AFF3 / RFU, LMF1 / Fold change vs veh, LMF1 / RFU, IPO11 / Fold change vs veh, IPO11 / RFU, DFFB / Fold change vs veh, DFFB / RFU, FOXP1 / Fold change vs veh, FOXP1 / RFU, CARD8 / Fold change vs veh, CARD8 / RFU, STRN3 / Fold change vs veh, STRN3 / RFU, ADK / Fold change vs veh, ADK / RFU, RASSF2 / Fold change vs veh, RASSF2 / RFU, WIPF1 / Fold change vs veh, WIPF1 / RFU, LARP1B / Fold change vs veh, LARP1B / RFU, RASA1 / Fold change vs veh, RASA1 / RFU, RB1 / Fold change vs veh, RB1 / RFU, PPFIA1 / Fold change vs veh, PPFIA1 / RFU, MAT2A / Fold change vs veh, MAT2A / RFU, CCT5 / Fold change vs veh, CCT5 / RFU, WDR92 / Fold change vs veh, WDR92 / RFU, CUX1 / Fold change vs veh, CUX1 / RFU, TTC7A / Fold change vs veh, TTC7A / RFU, TMEM135 / Fold change vs veh, TMEM135 / RFU, DEPTOR / Fold change vs veh, DEPTOR / RFU, CPM / Fold change vs veh, CPM / RFU, DNAJB6 / Fold change vs veh, DNAJB6 / RFU, CACNA2D3 / Fold change vs veh, CACNA2D3 / RFU, DTX4 / Fold change vs veh, DTX4 / RFU, TFCP2 / Fold change vs veh, TFCP2 / RFU, GMCL1 /// GMCL1P1 / Fold change vs veh, GMCL1 /// GMCL1P1 / RFU, AEBP2 / Fold change vs veh, AEBP2 / RFU, SNHG1 /// SNORD22 /// SNORD25 /// SNORD26 /// SNORD27 /// SNORD28 /// SNORD29 /// SNORD31 / Fold change vs veh, SNHG1 /// SNORD22 /// SNORD25 /// SNORD26 /// SNORD27 /// SNORD28 /// SNORD29 /// SNORD31 / Fold change (Aza/veh), C12orf56 (ProbeSet 11735607_a_at) / Fold change (ACY-1035/veh), C12orf56 (ProbeSet 11735607_a_at) / Fold change (Aza/veh), FGFR1OP (ProbeSet 11751329_s_at) / Fold change (ACY-1035/veh), FGFR1OP (ProbeSet 11751329_s_at) / Fold change (Aza/veh), VPS36 (ProbeSet 11739960_a_at) / Fold change (ACY-1035/veh), VPS36 (ProbeSet 11739960_a_at) / RFU SYPL1 (11715823_x_at) / Fold change /veh SYPL1 (11715823_x_at) / RFU IGFBP7 (11715501_s_at) / Fold change /veh IGFBP7 (11715501_s_at) / RFU REEP3 (11722064_at) / Fold change /veh REEP3 (11722064_at) / RFU IGLL1 (11728026_x_at) / Fold change /veh IGLL1 (11728026_x_at): dose or concentration left out as unconfirmed
Details: MV-4-11 cells, 48 hours

SMILES: Nc1ncn([C@@H]2O[C@H](CO)[C@@H](O)[C@H]2O)c(=O)n1 [azacitidine]
- Fold change /veh CASKIN2 (11723855_a_at): 1.13
